Results taken from patent US8658685B2, “Methods for treatment of kallikrein-related disorders” (Activesite Pharmaceuticals, Inc., priority 2008, dated 2014).

Tests used:
[1] = system: AngII-induced retinal vascular permeability; test: AngII-induced retinal vascular permeability in rats; format: in vivo, rat; conditions: AngII and ASP-465 via 2 Alzet pumps for 3 days; vitreous fluorophotometry
Procedure: Rats were implanted with a single subcutaneous osmotic pump containing Ang II or two pumps containing AngII and ASP-465, as indicated. RVP was measured using vitreous fluorophotometry after 3 days.
RVP was measured using Evan's blue dye method after 7 days.
We examined the effect of the kallikrein inhibitor ASP-465 on RVP induced by angiotensin II (AngII).

astrocytes [2] = test: Plasma kallikrein-induced ERK phosphorylation in astrocytes; format: cell-based; conditions: astrocytes exposed to plasma kallikrein
From the text: (§1) We have also studied the effects of plasma kallikrein pathway activation on astrocytes. […] Exposure of astrocytes to plasma kallikrein potently stimulated ERK phosphorylation, and this action of kallikrein on astrocytes is not affected by B2-R antagonism (Hoe140). The effect of kallikrein on astrocytes was blocked by leupeptin, a protease inhibitor and C1-INH (data not shown). […] This is in contrast to the bradykinin effect, which is rapid and transient (data not shown). Plasma kallikrein's effect on ERK phosphorylation in astrocytes is dose dependent, reaching a maximal effect at 100 nM kallikrein (data not shown). […] In addition, plasma kallikrein binding to astrocytes was blocked by AS-440 (FIG. 9B) and C1-INH (data not shown).

bradykinin-induced RVP = test: Bradykinin-induced RVP in rats (vitreous fluorophotometry); format: in vivo; conditions: pretreatment 2 days, 12 ug/day/200 g rat, subcutaneous Alzet pump
From the text: (§2) FIGS. 3A-3B are a set of two bar graphs that show the effects of intravitreal injection of kallikrein (FIG. 3A) and bradykinin (FIG. 3B) on RVP in rats measured using vitreous fluorophotometry. Activators of the kallikrein pathway, including purified activated plasma kallikrein, factor XII (FXII), high molecular weight kininogen (HK), and bradykinin, increase retinal vascular permeability (RVP) to fluorescein. In addition, inhibitors of the kallikrein pathway, such as complement I inhibitors and α2-macroglobulin reduced RVP. Direct injection of these kallikrein pathway activators into the vitreous was observed by SLO fundus imaging of the leakage from first phase fluorescein following bolus intravenous injection (FIG. 2) and by vitreous fluorophotometry, which measure the levels of fluorescein in the vitreous 30 min after intravenous injection (FIG. 5A). […] In addition, intravitreal injection of bradykinin can acutely increase RVP (FIGS. 2A and 2B). Moreover, pretreatment of rats for 2 days with Hoe140 (Bradykinin R2 antagonist, 12 ug/day/200 g rat delivered using a subcutaneous Alzet pump) inhibited bradykinin-induced RVP (FIG. 3B).

blood-induced hematoma = test: Hematoma after intracerebral infusion of autologous blood in diabetic rats; format: in vivo, Sprague-Dawley rats; conditions: systemic treatment, 48 h after intracerebral infusion of autologous blood
Procedure: We have compared the response to intracerebral infusion of blood in Sprague-Dawley rats with 1 mo of STZ-induced diabetes with age matched non-diabetic control rats. Fifty μL of autologous whole blood was collected from the tail vein and immediately infused 1 mm anterior, 4 mm lateral and 6 mm in depth to the bregma using a 30 gauge needle at 20 μL per minute. The infusion needle was removed 10 min after injection and the burr hole was sealed with bone wax. Forty-eight hours after intracerebral injection, the animals were perfused with saline and surface hematoma area was examined by measurement of hematoma area relative to total hemisphere area.

brain astrocytes = test: Bradykinin-induced ERK phosphorylation in brain astrocytes; format: cell-based
From the text: as §1

astrocytes [3] = test: Plasma kallikrein binding to astrocytes; format: cell-based
From the text: as §1

[4] = system: retinal vascular permeability (RVP); test: Retinal vascular permeability to fluorescein, kallikrein pathway inhibitors; conditions: in vivo
From the text: as §2, with “Activators” for “FIGS. 3A-3B are a set of two bar graphs that show the effects of intravitreal injection of kallikrein (FIG. 3A) and bradykinin (FIG. 3B) on RVP in rats measured using vitreous fluorophotometry. Activators”

Row | Molecule | effect of kallikrein on ERK phosphorylation (astrocytes [2]) | RVP [4] | further results
1 | Cc1cc(C(=O)NCc2ccc(C(=N)N)cc2)c(C)n1Cc1ccncc1 [ASP-465, 2,5-Dimethyl-1-pyridin-4-ylmethyl-1H-pyrrole-3-carboxylic acid 4-carbamimidoyl-benzylamide] |  |  | RVP [1]: normal levels of RVP
2 | CC(=O)N[C@@H](CC(C)C)C(=O)N[C@@H](CC(C)C)C(=O)N[C@H](C=O)CCCNC(=N)N [leupeptin, reference compound] | blocked |  | 
3 | Hoe140 [reference compound] | not affected |  | bradykinin-induced RVP (bradykinin-induced RVP): inhibited; hematoma area (blood-induced hematoma): did not reduce; bradykinin-induced ERK phosphorylation (brain astrocytes): blocked
4 | C1-INH: C1-Esterase inhibitor, a serpin; major inhibitor of the classical complement pathway, contact activation system and intrinsic coagulation | blocked |  | plasma kallikrein binding to astrocytes (astrocytes [3]): blocked
5 | complement I inhibitors: inhibitors of the kallikrein pathway; probably complement 1 inhibitor (C1-INH) (protein, UniProt P05155 23-500, looked up) Plasma protease C1 inhibitor: NPNATSSSSQDPESLQDRGEGKVATTVISKMLFVEPILEVSSLPTTNSTTNSATKITANTTDEPTTQPTTEPTTQPTIQPTQPTTQLPTDSPTQPTTGSFCPGPVTLCSDLESHSTEAVLGDALVDFSLKLYHAFSAMKKVETNMAFSPFSIASLLTQVLLGAGENTKTNLESILSYPKDFTCVHQALKGFTTKGVTSVSQIFHSPDLAIRDTFVNASRTLYSSSPRVLSNNSDANLELINTWVAKNTNNKISRLLDSLPSDTRLVLLNAIYLSAKWKTTFDPKKTRMEPFHFKNSVIKVPMMNSKKYPVAHFIDQTLKAKVGQLQLSHNLSLVILVPQNLKHRLEDMEQALSPSVFKAIMEKLEMSKFQPTLLTLPRIKVTTSQDMLSIMEKLEFFDFSYDLNLCGLTEDPDLQVSAMQHQTVLELTETGVEAAAASAISVARTLLVFEVQQPFLFVLWDQQHKFPVFMGRVYDPRA |  | reduced RVP | 
6 | α2-macroglobulin: inhibitor of the kallikrein pathway (protein, UniProt P01023 24-1474, looked up) Alpha-2-macroglobulin: SVSGKPQYMVLVPSLLHTETTEKGCVLLSYLNETVTVSASLESVRGNRSLFTDLEAENDVLHCVAFAVPKSSSNEEVMFLTVQVKGPTQEFKKRTTVMVKNEDSLVFVQTDKSIYKPGQTVKFRVVSMDENFHPLNELIPLVYIQDPKGNRIAQWQSFQLEGGLKQFSFPLSSEPFQGSYKVVVQKKSGGRTEHPFTVEEFVLPKFEVQVTVPKIITILEEEMNVSVCGLYTYGKPVPGHVTVSICRKYSDASDCHGEDSQAFCEKFSGQLNSHGCFYQQVKTKVFQLKRKEYEMKLHTEAQIQEEGTVVELTGRQSSEITRTITKLSFVKVDSHFRQGIPFFGQVRLVDGKGVPIPNKVIFIRGNEANYYSNATTDEHGLVQFSINTTNVMGTSLTVRVNYKDRSPCYGYQWVSEEHEEAHHTAYLVFSPSKSFVHLEPMSHELPCGHTQTVQAHYILNGGTLLGLKKLSFYYLIMAKGGIVRTGTHGLLVKQEDMKGHFSISIPVKSDIAPVARLLIYAVLPTGDVIGDSAKYDVENCLANKVDLSFSPSQSLPASHAHLRVTAAPQSVCALRAVDQSVLLMKPDAELSASSVYNLLPEKDLTGFPGPLNDQDNEDCINRHNVYINGITYTPVSSTNEKDMYSFLEDMGLKAFTNSKIRKPKMCPQLQQYEMHGPEGLRVGFYESDVMGRGHARLVHVEEPHTETVRKYFPETWIWDLVVVNSAGVAEVGVTVPDTITEWKAGAFCLSEDAGLGISSTASLRAFQPFFVELTMPYSVIRGEAFTLKATVLNYLPKCIRVSVQLEASPAFLAVPVEKEQAPHCICANGRQTVSWAVTPKSLGNVNFTVSAEALESQELCGTEVPSVPEHGRKDTVIKPLLVEPEGLEKETTFNSLLCPSGGEVSEELSLKLPPNVVEESARASVSVLGDILGSAMQNTQNLLQMPYGCGEQNMVLFAPNIYVLDYLNETQQLTPEIKSKAIGYLNTGYQRQLNYKHYDGSYSTFGERYGRNQGNTWLTAFVLKTFAQARAYIFIDEAHITQALIWLSQRQKDNGCFRSSGSLLNNAIKGGVEDEVTLSAYITIALLEIPLTVTHPVVRNALFCLESAWKTAQEGDHGSHVYTKALLAYAFALAGNQDKRKEVLKSLNEEAVKKDNSVHWERPQKPKAPVGHFYEPQAPSAEVEMTSYVLLAYLTAQPAPTSEDLTSATNIVKWITKQQNAQGGFSSTQDTVVALHALSKYGAATFTRTGKAAQVTIQSSGTFSSKFQVDNNNRLLLQQVSLPELPGEYSMKVTGEGCVYLQTSLKYNILPEKEEFPFALGVQTLPQTCDEPKAHTSFQISLSVSYTGSRSASNMAIVDVKMVSGFIPLKPTVKMLERSNHVSRTEVSSNHVLIYLDKVSNQTLSLFFTVLQDVPVRDLKPAIVKVYDYYETDEFAIAEYNAPCSKDLGNA |  | reduced RVP | 
